Active and inactive are the calls of the source.
Tests used:
[1] = NIH-3T3 fibroblast cytotoxicity, dose response, cytotoxicity control, cell-based, fluorescence, Alamar Blue, secondary assay (AID 2327); assay type: functional;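 further: NIH-3T3 mouse fibroblasts cultured with fluconazole at 8 µg/mL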
[2] = target: T1, Leucine aminopeptidase (Plasmodium falciparum 3D7, UniProt Q8IL11); assay: P. falciparum M17LAP inhibitors, primary screen, biochemical, fluorogenic H-Leu-NHMec substrate, 1536-well (AID 1619); assay type: functional
T1 sequence (Q8IL11 whole entry): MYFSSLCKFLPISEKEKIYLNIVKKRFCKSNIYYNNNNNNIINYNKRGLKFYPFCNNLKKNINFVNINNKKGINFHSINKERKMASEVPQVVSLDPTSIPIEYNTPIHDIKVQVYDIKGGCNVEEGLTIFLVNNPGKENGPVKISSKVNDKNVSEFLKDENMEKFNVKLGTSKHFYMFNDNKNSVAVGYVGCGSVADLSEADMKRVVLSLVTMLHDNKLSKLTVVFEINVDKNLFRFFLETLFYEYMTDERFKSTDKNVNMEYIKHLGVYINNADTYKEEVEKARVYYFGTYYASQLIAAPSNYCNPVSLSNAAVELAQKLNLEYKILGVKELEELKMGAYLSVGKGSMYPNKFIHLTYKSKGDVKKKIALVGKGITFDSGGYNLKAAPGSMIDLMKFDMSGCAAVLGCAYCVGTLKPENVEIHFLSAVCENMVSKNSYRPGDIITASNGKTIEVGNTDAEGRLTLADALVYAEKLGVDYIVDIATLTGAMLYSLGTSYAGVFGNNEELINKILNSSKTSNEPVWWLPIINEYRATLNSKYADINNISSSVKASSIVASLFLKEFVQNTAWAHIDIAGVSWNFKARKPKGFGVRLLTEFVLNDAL

[3] = C. albicans growth with fluconazole, confirmation, fluorescence, retest (AID 2467); assay type: functional, cell-based
[4] = target: Large T antigen (Simian virus 40, UniProt P03070); assay type: functional, Betapolyomavirus macacae;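 further: Confirmatory-stage PubChem screen for compounds that inhibit SV40 T antigen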
[5] = target: Induced myeloid leukemia cell differentiation protein Mcl-1 (Homo sapiens, UniProt Q07820); assay: MCL1-BIM BH3 interaction inhibitors, dose response, biochemical, fluorescence polarization, BIM-BH3 peptide, 1536-well (AID 2217)
[6] = target: T2, Estrogen receptor beta (Homo sapiens, UniProt Q92731);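 further: recombinant ER-beta bound to coactivator SRC1 peptide in presence of estradiol agonist; inhibitors block coactivator peptide binding and lower the FRET signal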
[7] = target: T2, Estrogen receptor beta; assay: ERβ–SRC-3 coactivator interaction inhibitors, confirmation, orthogonal assay, biochemical, ELISA, streptavidin-HRP readout (AID 1060)
[8] = target: Bcl-2-like protein 1 (Homo sapiens, UniProt Q07817); assay: BCL-XL inhibitors, dose response, selectivity assay for MCL1 inhibitor project, biochemical, fluorescence polarization, 1536-well (AID 2218)
[9] = target: Intestinal-type alkaline phosphatase (Mus musculus, UniProt P24822); assay: PubChem AID 488785; assay type: functional
[10] = target: T3, Alkaline phosphatase, tissue-nonspecific isozyme (Homo sapiens, UniProt P05186); assay: TNAP enzyme inhibition by screening hits, dose response, selectivity assay for mouse IAP inhibitor project, biochemical, human TNAP, uHTS hits (AID 488906); assay type: functional
T3 sequence (P05186 whole entry): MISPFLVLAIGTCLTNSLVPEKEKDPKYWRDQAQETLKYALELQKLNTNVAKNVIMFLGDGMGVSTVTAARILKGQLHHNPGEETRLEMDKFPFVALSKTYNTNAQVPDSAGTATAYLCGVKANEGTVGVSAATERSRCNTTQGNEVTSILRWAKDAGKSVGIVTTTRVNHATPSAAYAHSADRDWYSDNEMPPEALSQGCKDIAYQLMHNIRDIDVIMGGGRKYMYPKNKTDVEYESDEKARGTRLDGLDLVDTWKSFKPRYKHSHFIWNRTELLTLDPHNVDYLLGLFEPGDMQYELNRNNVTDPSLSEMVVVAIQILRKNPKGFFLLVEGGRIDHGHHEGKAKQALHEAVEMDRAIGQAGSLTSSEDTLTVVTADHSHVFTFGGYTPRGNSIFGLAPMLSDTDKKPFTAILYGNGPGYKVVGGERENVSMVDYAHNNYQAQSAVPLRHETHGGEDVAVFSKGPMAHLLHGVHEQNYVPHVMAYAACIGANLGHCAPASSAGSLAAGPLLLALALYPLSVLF

[11] = target: Intestinal-type alkaline phosphatase (Homo sapiens, UniProt P09923); assay: inhibition of human intestinal alkaline phosphatase – biochemical, dose response (AID 488876); assay type: functional
[12] = target: Albumin (Bos taurus, UniProt P02769); assay: Counterscreen for inhibitors of T-cell receptor (TCR)-CD3 interaction: Fluorescence-based biochemical high throughput dose response assay to identify inhibitors of T-cell receptor (TCR)-CD3 interaction using a TAMRA-labeled BSA probe.; assay type: functional
[13] = target: T4, Histone-lysine N-methyltransferase NSD2 (Homo sapiens, UniProt O96028); assay type: biochemical
T4 sequence (O96028 whole entry): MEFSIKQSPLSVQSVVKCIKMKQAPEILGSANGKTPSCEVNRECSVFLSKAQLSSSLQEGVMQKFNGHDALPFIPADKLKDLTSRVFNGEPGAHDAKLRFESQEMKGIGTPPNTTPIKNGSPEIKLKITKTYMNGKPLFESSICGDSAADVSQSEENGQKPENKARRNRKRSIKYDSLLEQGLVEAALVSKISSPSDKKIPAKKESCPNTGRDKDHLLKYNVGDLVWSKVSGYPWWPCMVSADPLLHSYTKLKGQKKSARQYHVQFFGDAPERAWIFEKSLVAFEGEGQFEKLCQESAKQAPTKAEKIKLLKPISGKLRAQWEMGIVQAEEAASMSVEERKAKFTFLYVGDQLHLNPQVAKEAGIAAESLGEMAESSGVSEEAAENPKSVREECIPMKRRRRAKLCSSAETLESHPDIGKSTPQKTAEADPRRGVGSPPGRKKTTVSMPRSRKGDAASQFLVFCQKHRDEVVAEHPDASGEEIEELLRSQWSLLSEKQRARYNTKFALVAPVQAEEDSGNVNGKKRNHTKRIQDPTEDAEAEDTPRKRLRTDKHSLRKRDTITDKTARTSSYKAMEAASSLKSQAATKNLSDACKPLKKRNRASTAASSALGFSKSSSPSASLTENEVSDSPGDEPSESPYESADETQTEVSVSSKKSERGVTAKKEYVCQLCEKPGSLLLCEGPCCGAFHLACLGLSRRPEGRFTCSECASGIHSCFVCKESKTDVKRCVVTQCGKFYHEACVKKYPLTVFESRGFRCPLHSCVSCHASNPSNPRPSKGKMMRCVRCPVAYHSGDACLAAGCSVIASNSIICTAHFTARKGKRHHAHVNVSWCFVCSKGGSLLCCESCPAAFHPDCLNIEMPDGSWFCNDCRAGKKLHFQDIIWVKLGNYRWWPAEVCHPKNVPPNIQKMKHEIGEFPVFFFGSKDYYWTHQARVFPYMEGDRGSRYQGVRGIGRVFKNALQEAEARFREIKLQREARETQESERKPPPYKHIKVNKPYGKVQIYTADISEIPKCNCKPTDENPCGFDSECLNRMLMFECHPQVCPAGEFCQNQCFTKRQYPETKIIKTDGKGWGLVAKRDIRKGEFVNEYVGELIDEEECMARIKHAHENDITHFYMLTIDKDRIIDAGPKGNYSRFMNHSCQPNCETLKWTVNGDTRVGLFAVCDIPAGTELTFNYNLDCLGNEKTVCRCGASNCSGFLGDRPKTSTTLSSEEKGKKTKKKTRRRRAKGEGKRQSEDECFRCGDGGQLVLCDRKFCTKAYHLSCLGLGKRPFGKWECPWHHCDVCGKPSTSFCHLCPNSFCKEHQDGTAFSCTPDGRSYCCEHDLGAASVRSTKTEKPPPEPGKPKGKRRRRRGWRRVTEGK

[14] = inhibitors of firefly luciferase expression or activity, dose response, H4 neuroglioma cells, luminescence (AID 1990); assay type: functional, cell-based
[15] = target: Neuropeptide Y receptor type 1 (Homo sapiens, UniProt P25929); assay type: functional;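 further: HEK293 cells with a CNG channel challenged with NPY then isoproterenol; potency as antagonist that reverses NPY suppression of cAMP signal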
[16] = Luminescence Cell-Based Dose Response HTS to Identify Inhibitors of 5'UTR Stem-Loop Driven Prion Protein mRNA Translation in H4 Neuroglioblastoma Cells. [Related pubchem assays: 1827 (Project Summary), 1813 (Primary HTS)]; assay type: functional
[17] = inhibitors of SNCA 5'UTR-driven reporter translation, confirmation, H4 neuroglioma cells, luminescence (AID 1988); assay type: functional, cell-based
[18] = target: Neuropeptide Y receptor type 2 (Homo sapiens, UniProt P49146); assay type: functional, cell-based;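 further: HEK293 cells expressing the receptor and a CNG channel; stimulus was NPY near EC95 followed by isoproterenol to raise cAMP; antagonist potency measured as restoring cAMP signal that NPY suppresses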
[19] = insulin promoter down-regulators in MIN6 cells, imaging, high-content screening, mouse beta cells (AID 1628); assay type: functional
[20] = cytotoxicity in MIN6 insulinoma cells, dose response, cytotoxicity control, cell-based, mouse insulinoma (AID 2122); assay type: functional;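 further: confirmatory high-throughput counterscreen run to flag cytotoxic compounds; mouse MIN-6 beta cells carrying an insulin promoter eGFP reporter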
[21] = target: T5, Mannose-6-phosphate isomerase (Homo sapiens, UniProt P34949); assay: inhibitors of human PMI, primary screen, biochemical, fluorescence intensity, coupled assay (AID 1209)
T5 sequence (P34949 whole entry): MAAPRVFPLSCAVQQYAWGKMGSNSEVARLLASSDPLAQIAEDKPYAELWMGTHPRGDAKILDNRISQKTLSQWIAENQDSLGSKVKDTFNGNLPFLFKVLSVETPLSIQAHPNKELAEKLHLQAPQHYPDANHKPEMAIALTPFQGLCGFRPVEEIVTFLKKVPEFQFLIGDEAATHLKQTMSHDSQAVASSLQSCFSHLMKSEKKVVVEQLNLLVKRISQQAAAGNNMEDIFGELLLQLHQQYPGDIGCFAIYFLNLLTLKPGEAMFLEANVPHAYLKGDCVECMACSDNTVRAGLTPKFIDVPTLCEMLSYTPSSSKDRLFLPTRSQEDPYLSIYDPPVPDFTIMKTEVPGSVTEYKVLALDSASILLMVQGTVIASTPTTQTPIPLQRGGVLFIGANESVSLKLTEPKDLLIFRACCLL

[22] = target: T6, Bcl-2-like protein 10 (Homo sapiens, UniProt Q9HD36); assay: Biochemical TR3 FP assay of Bcl-B inhibitor potency, EC50 (AID 1243); assay type: functional
T6 sequence (Q9HD36 whole entry): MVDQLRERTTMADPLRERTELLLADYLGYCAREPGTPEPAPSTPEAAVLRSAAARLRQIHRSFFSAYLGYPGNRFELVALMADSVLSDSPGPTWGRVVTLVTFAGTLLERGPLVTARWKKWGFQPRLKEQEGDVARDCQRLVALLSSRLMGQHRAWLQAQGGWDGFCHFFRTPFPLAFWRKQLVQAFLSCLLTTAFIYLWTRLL

T2 sequence (Q92731 whole entry): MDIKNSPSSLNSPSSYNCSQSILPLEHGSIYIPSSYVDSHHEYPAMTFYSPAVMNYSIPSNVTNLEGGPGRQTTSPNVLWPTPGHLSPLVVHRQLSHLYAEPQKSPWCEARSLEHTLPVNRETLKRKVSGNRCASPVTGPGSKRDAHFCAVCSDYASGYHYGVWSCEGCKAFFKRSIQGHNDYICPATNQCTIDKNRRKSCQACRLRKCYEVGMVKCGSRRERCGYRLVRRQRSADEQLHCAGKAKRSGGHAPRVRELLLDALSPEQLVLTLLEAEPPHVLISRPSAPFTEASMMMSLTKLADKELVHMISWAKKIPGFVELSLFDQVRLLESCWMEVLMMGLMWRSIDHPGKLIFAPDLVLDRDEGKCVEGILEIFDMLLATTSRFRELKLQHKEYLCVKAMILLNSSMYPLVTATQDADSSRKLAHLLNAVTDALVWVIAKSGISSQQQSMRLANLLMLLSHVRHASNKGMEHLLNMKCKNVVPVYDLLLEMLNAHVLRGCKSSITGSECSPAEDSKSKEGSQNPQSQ
Large T antigen, sequence (P03070 whole entry): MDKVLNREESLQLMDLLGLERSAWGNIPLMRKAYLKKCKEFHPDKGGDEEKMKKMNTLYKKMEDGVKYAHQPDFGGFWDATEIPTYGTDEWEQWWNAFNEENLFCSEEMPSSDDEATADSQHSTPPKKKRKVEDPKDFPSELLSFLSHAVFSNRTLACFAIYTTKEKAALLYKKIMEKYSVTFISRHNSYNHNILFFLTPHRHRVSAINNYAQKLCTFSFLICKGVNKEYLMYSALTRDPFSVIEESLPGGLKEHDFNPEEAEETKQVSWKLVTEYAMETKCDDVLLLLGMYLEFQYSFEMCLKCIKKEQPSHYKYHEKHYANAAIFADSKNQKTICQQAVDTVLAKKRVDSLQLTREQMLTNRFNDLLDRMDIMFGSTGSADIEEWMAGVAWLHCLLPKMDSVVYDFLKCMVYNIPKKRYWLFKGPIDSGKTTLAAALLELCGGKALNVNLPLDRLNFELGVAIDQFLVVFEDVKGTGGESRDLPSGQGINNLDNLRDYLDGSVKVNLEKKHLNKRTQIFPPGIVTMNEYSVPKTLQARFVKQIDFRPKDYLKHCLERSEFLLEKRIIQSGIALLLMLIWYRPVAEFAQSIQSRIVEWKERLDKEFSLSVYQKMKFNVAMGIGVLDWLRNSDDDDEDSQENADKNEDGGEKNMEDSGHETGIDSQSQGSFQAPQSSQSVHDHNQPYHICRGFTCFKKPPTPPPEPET
Bcl-2-like protein 1, sequence (Q07817 whole entry): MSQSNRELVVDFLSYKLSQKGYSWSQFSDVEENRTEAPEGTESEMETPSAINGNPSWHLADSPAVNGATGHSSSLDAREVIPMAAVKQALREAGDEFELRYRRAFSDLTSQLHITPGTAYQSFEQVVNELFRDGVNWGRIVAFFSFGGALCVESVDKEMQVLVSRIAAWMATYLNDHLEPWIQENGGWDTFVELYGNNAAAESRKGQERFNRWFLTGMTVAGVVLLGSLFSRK
Intestinal-type alkaline phosphatase (Homo sapiens, UniProt P09923), sequence (P09923 whole entry): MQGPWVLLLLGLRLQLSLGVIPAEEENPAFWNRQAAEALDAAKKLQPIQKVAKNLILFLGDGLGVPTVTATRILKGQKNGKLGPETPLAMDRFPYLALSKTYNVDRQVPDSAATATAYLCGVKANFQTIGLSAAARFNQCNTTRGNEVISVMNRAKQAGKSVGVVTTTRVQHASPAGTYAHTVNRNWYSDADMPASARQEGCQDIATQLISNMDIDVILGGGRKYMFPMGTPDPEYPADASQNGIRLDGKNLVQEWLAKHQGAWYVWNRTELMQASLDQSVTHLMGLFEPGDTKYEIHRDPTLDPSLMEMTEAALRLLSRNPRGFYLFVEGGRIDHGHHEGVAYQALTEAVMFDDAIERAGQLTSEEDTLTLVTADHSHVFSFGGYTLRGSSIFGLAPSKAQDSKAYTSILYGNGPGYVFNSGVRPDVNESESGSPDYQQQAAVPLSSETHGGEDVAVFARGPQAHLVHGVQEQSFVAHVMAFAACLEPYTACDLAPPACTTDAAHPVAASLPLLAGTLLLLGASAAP
Neuropeptide Y receptor type 1, sequence (P25929 whole entry): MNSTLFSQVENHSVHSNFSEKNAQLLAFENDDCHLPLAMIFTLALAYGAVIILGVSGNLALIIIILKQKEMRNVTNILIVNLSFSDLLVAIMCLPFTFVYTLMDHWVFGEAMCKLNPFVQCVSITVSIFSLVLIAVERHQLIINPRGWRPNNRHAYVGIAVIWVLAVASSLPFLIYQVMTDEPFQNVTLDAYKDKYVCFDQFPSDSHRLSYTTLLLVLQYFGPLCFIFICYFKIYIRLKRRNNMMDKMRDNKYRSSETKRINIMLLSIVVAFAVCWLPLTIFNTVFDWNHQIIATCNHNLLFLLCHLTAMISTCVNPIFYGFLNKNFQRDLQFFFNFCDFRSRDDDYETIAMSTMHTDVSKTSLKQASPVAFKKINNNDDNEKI
Intestinal-type alkaline phosphatase (Mus musculus, UniProt P24822), sequence (P24822 whole entry): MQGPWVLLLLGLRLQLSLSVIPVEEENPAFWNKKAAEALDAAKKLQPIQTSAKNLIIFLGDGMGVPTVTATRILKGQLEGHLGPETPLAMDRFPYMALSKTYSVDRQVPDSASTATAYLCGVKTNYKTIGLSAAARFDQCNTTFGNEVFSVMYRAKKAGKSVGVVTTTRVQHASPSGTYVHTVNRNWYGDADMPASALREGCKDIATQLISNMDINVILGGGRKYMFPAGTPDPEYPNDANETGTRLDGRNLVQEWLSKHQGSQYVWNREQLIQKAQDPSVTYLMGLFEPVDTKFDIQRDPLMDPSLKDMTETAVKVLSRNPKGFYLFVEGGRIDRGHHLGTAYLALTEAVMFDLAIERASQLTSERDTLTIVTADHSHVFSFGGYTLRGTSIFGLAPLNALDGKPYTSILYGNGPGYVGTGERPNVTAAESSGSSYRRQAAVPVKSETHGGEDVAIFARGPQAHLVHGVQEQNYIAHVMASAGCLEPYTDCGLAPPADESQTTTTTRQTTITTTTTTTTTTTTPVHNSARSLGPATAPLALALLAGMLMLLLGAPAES
Induced myeloid leukemia cell differentiation protein Mcl-1, sequence (Q07820 whole entry): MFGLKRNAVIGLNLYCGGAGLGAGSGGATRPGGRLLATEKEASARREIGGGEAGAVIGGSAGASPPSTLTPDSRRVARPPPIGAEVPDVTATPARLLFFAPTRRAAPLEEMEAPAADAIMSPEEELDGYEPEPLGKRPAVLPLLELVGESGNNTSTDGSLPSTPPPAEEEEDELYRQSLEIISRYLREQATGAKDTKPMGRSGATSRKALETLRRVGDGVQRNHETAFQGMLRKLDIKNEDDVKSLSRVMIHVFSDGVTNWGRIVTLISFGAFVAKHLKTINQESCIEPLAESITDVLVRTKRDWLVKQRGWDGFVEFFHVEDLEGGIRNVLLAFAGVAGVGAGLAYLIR
Albumin, sequence (P02769 whole entry): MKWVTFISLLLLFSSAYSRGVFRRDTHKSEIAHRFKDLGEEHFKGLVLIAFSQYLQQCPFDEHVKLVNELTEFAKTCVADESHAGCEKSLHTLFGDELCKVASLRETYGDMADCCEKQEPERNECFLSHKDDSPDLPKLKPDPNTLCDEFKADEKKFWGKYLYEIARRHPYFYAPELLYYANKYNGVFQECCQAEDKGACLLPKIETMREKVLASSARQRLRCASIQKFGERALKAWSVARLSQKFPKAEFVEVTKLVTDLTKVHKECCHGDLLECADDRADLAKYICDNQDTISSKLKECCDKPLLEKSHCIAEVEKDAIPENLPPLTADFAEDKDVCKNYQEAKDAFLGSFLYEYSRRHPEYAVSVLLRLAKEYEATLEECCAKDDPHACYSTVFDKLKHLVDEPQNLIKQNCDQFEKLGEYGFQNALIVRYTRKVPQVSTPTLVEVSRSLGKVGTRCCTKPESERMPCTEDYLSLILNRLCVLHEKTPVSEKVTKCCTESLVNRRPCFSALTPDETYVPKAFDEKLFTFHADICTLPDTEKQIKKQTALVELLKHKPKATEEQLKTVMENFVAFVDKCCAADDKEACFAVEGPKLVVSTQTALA
Neuropeptide Y receptor type 2, sequence (P49146 whole entry): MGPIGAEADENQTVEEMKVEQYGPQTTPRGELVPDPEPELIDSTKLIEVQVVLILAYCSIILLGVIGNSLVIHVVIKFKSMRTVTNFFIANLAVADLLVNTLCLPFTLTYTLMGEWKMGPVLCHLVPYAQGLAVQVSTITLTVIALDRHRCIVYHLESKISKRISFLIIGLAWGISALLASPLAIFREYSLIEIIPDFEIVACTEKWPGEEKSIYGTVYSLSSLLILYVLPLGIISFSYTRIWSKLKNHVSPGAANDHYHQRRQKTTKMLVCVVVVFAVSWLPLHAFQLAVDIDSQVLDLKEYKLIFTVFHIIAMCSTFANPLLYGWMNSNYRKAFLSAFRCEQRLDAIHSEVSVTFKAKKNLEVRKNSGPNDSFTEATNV

For `CCn1c(SCC(=O)c2ccc(O)c(O)c2)nnc1-c1ccccc1OC`, the EC50 [1] was > 160 µM (inactive), the IC50 [2] was 24.4 µM (active) and the EC50 [3] was > 38 µM (not active). For the same compound, the IC50 [4] was 7.83 µM (active), the IC50 [5] was 37.4 µM (not active) and the IC50 [6] was 5.06 µM (active). The IC50 [7] was 93.8 µM (not active), the IC50 [8] was > 109 µM (not active) and the IC50 [9] was 1.43 µM (active). For the same compound, the IC50 [10] was > 100 µM (inactive), the IC50 [11] was > 100 µM (inactive) and the IC50 [12] was > 94.1 µM (inactive). For the same compound, the AC50 [13] was 9.05 µM (active).
In the case of `C/C=C(/C)C(=O)O[C@@H]1c2c(ccc3ccc(=O)oc23)O[C@@H]1C(C)(C)OC(=O)/C(C)=C\C`, the EC50 [14] is reported as 15.2 µM (active), the IC50 [15] is reported as 5.85 µM (active) and the EC50 [16] is reported as > 120 µM (not active). The EC50 [17] was > 120 µM (not active) and the IC50 [18] was 5.06 µM (active).
For `Cc1ccc(Nc2nc(-c3ccc(O)c(O)c3)cs2)nc1`, the IC50 [19] was 6.26 µM (active), the IC50 [20] was 3.85 µM (active) and the IC50 [4] was 12.3 µM (active). The IC50 [21] was 48.6 µM (active).
In the case of `COc1ccc(Nc2ccc(N)cc2)cc1`, the EC50 [22] is reported as 7.22 µM (active).

Reference: ChEMBL document CHEMBL1201862, “PubChem BioAssay data set” (2004)
